Patent US20080176225A1, “MEMBRANE BOUND REPORTER GENE SYSTEM” (priority 2007, published 2008)

How the values were obtained:
[1] = target: T1, mβG-eB7 (Mus musculus, UniProt P12265, G265D/I320V); assay: In vivo whole-body optical imaging of FDGlcU activation in mice bearing CT26 and CT26/mβG-eB7 tumors; details: Balb/c mice, 500 μg i.v.
T1 construct: expressed in transfected cells
T1 sequence (P12265 with tags, fused parts or gaps G265D/I320V): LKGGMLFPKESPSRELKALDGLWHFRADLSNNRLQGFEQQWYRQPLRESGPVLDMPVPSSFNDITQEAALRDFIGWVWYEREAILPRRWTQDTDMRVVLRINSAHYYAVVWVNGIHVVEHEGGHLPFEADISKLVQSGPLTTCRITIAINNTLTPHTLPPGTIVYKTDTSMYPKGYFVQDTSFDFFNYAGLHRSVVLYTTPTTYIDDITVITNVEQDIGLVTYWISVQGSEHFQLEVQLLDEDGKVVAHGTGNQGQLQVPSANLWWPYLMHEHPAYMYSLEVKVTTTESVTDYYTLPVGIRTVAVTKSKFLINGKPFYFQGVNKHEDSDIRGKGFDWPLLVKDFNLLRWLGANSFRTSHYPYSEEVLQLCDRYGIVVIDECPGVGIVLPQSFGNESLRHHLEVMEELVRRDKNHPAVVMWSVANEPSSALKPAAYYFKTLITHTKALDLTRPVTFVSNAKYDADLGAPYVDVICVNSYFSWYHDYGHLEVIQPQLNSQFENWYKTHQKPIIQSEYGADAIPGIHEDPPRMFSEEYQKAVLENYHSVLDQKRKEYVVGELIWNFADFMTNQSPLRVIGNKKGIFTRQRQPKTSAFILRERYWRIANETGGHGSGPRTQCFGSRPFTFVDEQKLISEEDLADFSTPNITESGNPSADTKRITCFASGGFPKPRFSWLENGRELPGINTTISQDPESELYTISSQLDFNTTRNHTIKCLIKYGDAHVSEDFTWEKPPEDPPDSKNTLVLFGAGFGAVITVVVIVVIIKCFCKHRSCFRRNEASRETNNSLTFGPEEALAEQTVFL
Procedure: To investigate whether expression sites of membrane bound β-glucuronidase reporter system could be non-invasively detected (in vivo imaging), Balb/c mice bearing established CT26 and CT26/mβG-eB7 colon tumors in their left and right chest regions, respectively, were intravenously injected with about 500 μg of non-fluorescent FDGlcU. Whole-body images of the mice were acquired by performing 3 minute scans.
As an example, Balb/c mice (n=3) bearing established CT26 and CT26/mβG tumors (200-300 mm^3) in their left and right chest regions, respectively, were i.v. injected with 500 μg FDGlcU. Whole-body images of pentobarbital-anesthetized mice were obtained by performing 3 minutes scans over 90 minutes on a Kodak IS2000MM optical imaging system. The fluorescence intensities were analyzed with KODAK 1D Image Analysis Software.
The distribution of activated FDGlcU in CT26 (open circle) and CT26/mβG-eB7 (black dot) tumors (n=4) was determined by measuring fluorescence intensities in 3 minute scans performed over 90 minutes.

[2] = target: T1, mβG-eB7; assay: Biodistribution by optical imaging of whole-body frozen sections after i.v. FDGlcU or fluorescein; assay type: in vivo; details: 30 minutes after i.v. injection of 500 μg
Procedure: In vivo biodistribution of fluorescein was measured around 30 minutes after i.v. injection of the substrate, FDGlcU, (left panel) or fluorescein (right panel). The biodistribution of activated FDGlcU was examined by killing tumor-bearing mice 30 minutes after they received an injection of FDGlcU or fluorescein and then performing optical imaging of whole-body frozen sections. The intensity of the fluorescence of whole-body sections was measured with the IVIS® Imaging System 50 (Xenogen, Alameda, Calif.).
For example, mice (n=3) were i.v. injected with 500 μg FDGlcU or fluorescein 30 min before the mice were dipped into isopentane at liquid nitrogen temperatures and embedded on a cryostat holder (7×5 cm) in 4% carboxylmethylcellulose. The fluorescence signals of 30 μm whole-body sections were measured on a IVIS® Imaging System 50 (Xenogen, Alameda, Calif.) and the regions of interest were analyzed with Living Image® software (Xenogen).
FIG. 9 is a graph showing a comparison of the results of the example of FIG. 8 in different organ regions of interest according to one embodiment of the invention. After i.v. injection of FDGlcU or fluorescein, mice were analyzed with Living Image® software. […] The fluorescent intensity in CT26/mβG-eB7 tumors was about 240 times greater than in the CT26 tumors (FIG. 9). Fluorescent signals were also observed in the intestinal tract.

[3] = target: T1, mβG-eB7; assay: FDGlcU hydrolysis on live CT26 and CT26/mβG-eB7 cells, confocal microscopy; assay type: cell-based; details: 40 μM FDGlcU, pH 6.5, 37° C., 40 minutes
Procedure: For example, functional expression of membrane bound β-glucuronidase on a host cell can be measured by incubating the host cells (with and without the recombinant reporter gene systems, such as CT26 or CT26/mβG-eB7 cells) with 40 μM FDGlcU (Invitrogen, Calsbad, Calif.) in phosphate-buffered saline containing 0.1% BSA, pH 6.5 at 37° C. for 40 minutes and then staining the cells with anti-myc antibody (5 μg/ml, clone Myc 1-9EIO.2, American Type Culture Collection, Manassas, Va.) at about 4° C. for about 1 hour. The cells can be washed with cold phosphate-buffered saline and incubated with rhodamine-conjugated rabbit anti-mouse IgG antibody (5 μg/ml) at about 4° C. for about 1 hour. The cells are then washed with cold phosphate-buffered saline, mounted with fluorescence mounting medium (anti fade; DakoCytomation, Carpinteria, Calif.), and viewed under a digital fluorescence confocal microscope.

[4] = target: T2, hβG-eB7 (UniProt P08236+Q00609, L649P); assay: In vivo imaging of FDGlcU in nude mice bearing EJ and EJ/hβG-eB7 tumors; design: species or system human; details: 500 μg i.v.
T2 construct: expressed in transfected cells; host or cells: EJ human bladder carcinoma cells, retroviral transduction with pLNCX-hβG-eB7; tumours in nude mice
T2 sequence (P08236+Q00609 with tags, fused parts or gaps P08236:L649P): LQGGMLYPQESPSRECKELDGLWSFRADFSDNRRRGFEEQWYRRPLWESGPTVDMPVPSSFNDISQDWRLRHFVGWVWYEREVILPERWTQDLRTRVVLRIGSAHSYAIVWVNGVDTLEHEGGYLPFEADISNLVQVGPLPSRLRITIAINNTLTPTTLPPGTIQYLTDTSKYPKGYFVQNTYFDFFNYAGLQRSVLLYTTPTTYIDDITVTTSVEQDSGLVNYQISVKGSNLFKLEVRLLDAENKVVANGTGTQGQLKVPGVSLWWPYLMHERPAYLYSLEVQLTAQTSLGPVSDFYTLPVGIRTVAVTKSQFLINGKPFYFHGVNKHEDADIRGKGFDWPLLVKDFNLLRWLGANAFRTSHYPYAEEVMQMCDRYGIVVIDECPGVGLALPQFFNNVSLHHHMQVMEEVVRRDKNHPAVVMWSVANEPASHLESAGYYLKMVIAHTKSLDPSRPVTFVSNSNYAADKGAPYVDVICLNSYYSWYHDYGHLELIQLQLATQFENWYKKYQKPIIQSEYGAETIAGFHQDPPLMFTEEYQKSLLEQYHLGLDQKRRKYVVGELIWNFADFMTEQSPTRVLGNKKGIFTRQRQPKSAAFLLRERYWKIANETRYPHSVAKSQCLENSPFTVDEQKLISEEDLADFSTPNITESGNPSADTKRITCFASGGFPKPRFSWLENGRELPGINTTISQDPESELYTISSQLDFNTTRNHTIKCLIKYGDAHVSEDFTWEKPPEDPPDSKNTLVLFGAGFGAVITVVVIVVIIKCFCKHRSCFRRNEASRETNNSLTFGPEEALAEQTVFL
Procedure: Retroviral vector pLNCX-hβG-eB7 was constructed and infected to EJ human bladder carcinoma cells (EJ/hβG-eB7) to express functionally active human β-glucuronidase on the membrane. hβG-eB7 was imaged in nude mice (n=3) bearing established EJ and EJ/hβG-eB7 tumors (200-300 mm^3) in their left and right chest regions, respectively, by i.v. injecting 500 μg FDGlcU and performing imaging and histological analysis of fluorescent intensity and βG activity as described above.
FDGlcU was i.v. injected into mice bearing EJ (left) and EJ/hβG-eB7 (right) tumors and whole-body images were acquired at the indicated times (3 mins, 30 mins, 60 mins). […] Live EJ cells (open curve) and EJ/hβG-eB7 cells (solid curve) were immunofluorescence stained for the myc epitope (left panel) or incubated with FDGlcU (right panel), respectively, and analyzed on a flow cytometer.

[5] = target: T1, mβG-eB7; assay: In vivo imaging of FDGlcU in nude mice with HCC36 tumors injected with Ad5/mβG-eB7; details: 10^9 pfu intratumoral, FDGlcU i.v. two days later
Procedure: To image Ad5/mβG-eB7, nude mice (n=3) bearing established HCC36 tumors (200-300 mm^3) in their left and right chest's regions were injected in the right HCC36 tumor with 10^9 pfu of Ad5/mβG-eB7 in 50 μl of phosphate-buffered saline (PBS). Two days later, the mice were i.v. injected with 500 μg of FDGlcU. Whole-body images were obtained in 3 min scans over 2 hour.
After the tumors grew, 10^9 pfu of Ad5/mβG-eB7 was directly injected into the HCC36 tumor on the right side of the mouse. Two days later, the mouse was i.v. injected with FDGlcU and whole-body optical imaging was performed.
Tumor cells were collected 30 minutes after FDGlcU injection were stained with X-GlcA and nuclear fast red and then viewed under phase contrast and fluorescence microscopes.

[6] = target: T1, mβG-eB7; assay: FDGlcU staining of HCC36 cells infected with Ad5/mβG-eB7, flow cytometer; assay type: cell-based
From the text: HCC36 cells (open curve) and HCC36 cells infected with Ad5/mβG-eB7 (solid curve) were stained for the presence of the […] epitope in mβG-eB7 (left panel) or directly stained with FDGlcU (right panel) and then analyzed on a flow cytometer.
As shown by staining of membrane β-glucuronidase with anti-myc antibody in the left panel of FIG. 10, HCC36 cells were successfully infected with Ad5/mβG-eB7.

[7] = target: Recombinant E. coli β-glucuronidase (Escherichia coli, UniProt P05804); assay: Trapping of FITC-trap-glu on coated β-glucuronidase detected by anti-FITC antibody ELISA; assay type: biochemical; details: β-glucuronidase and BSA about 2 μg/well, serial dilutions, about 60 mins
Chain of Recombinant E. coli β-glucuronidase (P05804 whole entry): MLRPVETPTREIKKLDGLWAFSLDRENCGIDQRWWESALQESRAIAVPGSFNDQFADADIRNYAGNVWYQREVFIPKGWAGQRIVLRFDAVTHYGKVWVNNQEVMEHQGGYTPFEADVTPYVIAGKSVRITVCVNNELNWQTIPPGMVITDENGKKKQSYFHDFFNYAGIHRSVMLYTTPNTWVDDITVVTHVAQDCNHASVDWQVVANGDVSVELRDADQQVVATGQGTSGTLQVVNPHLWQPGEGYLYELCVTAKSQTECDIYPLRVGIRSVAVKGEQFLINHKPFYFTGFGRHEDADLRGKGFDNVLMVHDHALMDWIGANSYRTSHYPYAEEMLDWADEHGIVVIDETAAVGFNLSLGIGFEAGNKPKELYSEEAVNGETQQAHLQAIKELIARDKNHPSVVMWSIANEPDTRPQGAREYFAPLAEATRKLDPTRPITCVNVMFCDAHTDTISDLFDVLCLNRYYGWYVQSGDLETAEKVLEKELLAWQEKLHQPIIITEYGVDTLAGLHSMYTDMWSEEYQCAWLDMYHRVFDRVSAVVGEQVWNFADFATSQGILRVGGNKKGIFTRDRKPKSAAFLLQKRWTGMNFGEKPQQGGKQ
Procedure: Recombinant E. coli β-glucuronidase (about 2 μg/well) and bovine serum albumin (about 2 μg/well) were coated in 96 well microtiter plates and blocked with about 2% of skin milk. Serial dilutions of the FITC-trap-glu probe in phosphate-buffered saline were added to the wells of the microtiter plates at room temperature for about 60 mins. The plates were washed 3 times with phosphate-buffered saline. The plates were stained with about 1 μg/mL of an anti-FITC antibody followed by about 1 μg/mL of horse-radish peroxidase-conjugated anti-mouse IgG. The plates were washed and bound peroxidase activity was measured by adding about 100 μL/well of ABTS solution (about 0.4 mg/mL of 2,2′ azino-di(3-ethylbenzthiazoline-6-sulfonic acid), about 0.003% of H2O2, about 100 mM of phosphate-citrate, pH 4.0) for about 30 min at room temperature.

[8] = target: T1, mβG-eB7; assay: ^124I-trap-glu conversion by CT26/mβG-eB7 or CT26 cells, bound radioactivity in gamma-counter; assay type: cell-based; details: graded concentrations, room temperature, about 40 mins
Procedure: Graded concentrations of the ^124I-trap-glu probe/substrate were incubated with CT26/mβG-eB7 (▪) or CT26 cells (□) in phosphate-buffer saline at room temperature for about 40 mins. The plates containing the transfected cells were washed and bound radioactivity was measured in a gamma-counter.

[9] = target: T1, mβG-eB7; assay: ^124I-ph-trap-glu conversion by CT26/mβG-eB7 or CT26 cells, cell radioactivity in gamma-counter; assay type: cell-based; details: graded concentrations, room temperature, about 40 mins
Procedure: Graded concentrations of the ^124I-trap-glu probe was added to 96-well microtiter plates coated with CT26/mβG-eB7 (▪) or CT26 cells (□) in phosphate-buffered saline at room temperature for about 40 mins. The plates were then washed to remove non-precipitated probes and the cells were collected by treatment with trypsin. The radioactivity of cells was then measured in a gamma-counter.

O=C1OC2(c3ccc(O[C@@H]4O[C@H](C(=O)O)[C@@H](O)[C@H](O)[C@H]4O)cc3Oc3cc(O[C@@H]4O[C@H](C(=O)O)[C@@H](O)[C@H](O)[C@H]4O)ccc32)c2ccccc21 [FDGlcU, fluorescein di-β-D-glucuronide]
time of highest fluorescence after FDGlcU injection ([1]; 3 minute scans over 90 minutes): 30 min | conversion of FDGlcU to fluorescein in CT26/mβG tumors vs control CT26 tumors ([1]; whole-body images at 3, 30, 60 mins): selectively converted to fluorescein | fluorescent intensity in CT26/mβG-eB7 tumors relative to CT26 tumors ([2]; whole-body sections): about 240 times | conversion of FDGlcU to fluorescein on cells [3]: only CT26/mβG-e-B7 cells | conversion to fluorescent reporter in EJ/hβG-eB7 vs control EJ tumors [4]: preferentially converted to a fluorescent reporter in EJ/hβG-eB7 tumors but not in control tumors | fluorescence of Ad5/mβG-eB7 injected HCC36 tumor vs non-infected HCC36 tumors [5]: obvious fluorescence | activation of FDGlcU at Ad5/mβG-eB7 infected HCC36 cells [6]: activated to fluorescent product at the infected cells

O=C1OC2(c3ccc(O)cc3Oc3cc(O)ccc32)c2ccccc21 [fluorescein]
in vivo biodistribution ([2]; tumor-bearing mice): largely accumulated in the intestinal tract and kidneys

N-fluorescein-isothiocyanato (3-difluoromethylphenyl)-β-D-glucopyronuronate [FITC-trap-glu]
trapping by β-glucuronidase detected by anti-FITC antibody [7]: specific trapping

^124I-difluoromethylphenol glucuronide [^124I-trap-glu]
conversion of probe to ^124I-trap product in CT26/mβG-eB7 vs CT26 cells [8]: specifically converts

^124I-phenolphthalin glucuronide [^124I-ph-trap-glu]
conversion of probe to ^124I-trap reporter product in CT26/mβG-eB7 vs CT26 cells [9]: specifically converts
